Reference: patent US11571404B2, “Compositions and methods for the treatment of liver diseases and disorders associated with one or both of hyperammonemia or muscle wasting” (priority 2017, dated 2023)

Legend:
[1] = test system: C3A derivative clone of the HepG2 Hepatocellular Carcinoma cell line; test: Hepatic albumin production in cirrhosis media, ELISA normalized to nuclei (Example 9); assay type: cell-based, human; conditions: for Albumin/Nuclei (mean): 48 hours
Description: Media composed of amino acids consistent with profiles of cirrhotic individuals was tested for effect on production of albumin. Effects of […], components and comparator compositions on albumin production were determined. Methods: The ability of […] to increase hepatocyte albumin production was assessed using the C3A derivative clone of the HepG2 Hepatocellular Carcinoma cell line (ATCC, CRL-10741). 2.0e4 cells per well were seeded on day 0 in a 96-well microplate (Corning; 3903) in Dulbecco's Modified Eagle Medium (DMEM, Corning) supplemented with 10% fetal bovine serum (Corning) and 0.2% Primocin (InVivoGen, San Diego, Calif.) and incubated for 24 hours at 37° C., 5% CO2. […] Cells were cultured for 48 hours at 37° C., 5% CO2, media was collected, cells were washed 1× in PBS, fixed in 4% paraformaldehyde, washed 2× in PBS, nuclei were stained with Hoechst 33342 according to manufacturer's instructions (Life Technologies, H3570) and then washed 2× in PBS. Media albumin levels were assessed by R&D Systems's DuoSet ELISA Development System for Human Serum Albumin (R&D Systems, DY1455) and nuclei were counted using Molecular Devices Image Express High Content Screening platform and pre-installed nuclei counting analysis pipeline. Albumin levels were normalized to total nuclei in order to derive a per cell albumin production ratio.

primary human myotubes = test: TNF induced myotube atrophy, MYOSCREEN platform (Example 10); assay type: cell-based; set-up: Myotube Area mean: unit not given here; conditions: for Fusion Index mean / Myotube Area mean: TNFalpha 10 ng/mL, N=3
Description: Methods: Experiment was performed using the […] platform (CYTOO, France). Briefly, […] is a proprietary technology based on micropatterning and defined microenvironments that establish highly mature primary human myotubes with substantial striation and low morphological variability. Primary cells derived from skeletal muscle of healthy human donors are differentiated to form myotubes (multinucleated syncytia) that are highly reminiscent of human muscle tissue. […] is a fully automated platform that interrogates multiple phenotypes relevant for muscle physiology including myotube area, fusion index, and total nuclei. On Day 0 expanded primary myoblasts from a healthy human donor were seeded at 10,000 cells per well for 24 hour at 37 deg C. […] Importantly, treatment groups were prepared in PBS and final concentration in all wells, including controls, was 10% PBS. On Day 2 cells were switched to Cirrhosis Media based on DMEM comprising 0.1% horse serum and 0.5× amino acids at ratios of plasma of cirrhosis (Kakazu et al., 2013) containing atrophy inducer TNFalpha (10 ng/mL) and again treated according to Day 1 and Table 16. On Day 6 cells were fixed with 5% Formalin for 30 minutes at room temperature. Fixed cells were processed for immunostaining with primary antibody against Troponin T to stain myotubes and Hoeschst dye for nuclei. Image acquisition was done at 10× magnification using Operetta High Content Imaging System and analysis was performed using a proprietary and dedicated algorithm on the Acapella High Content Imaging System (Perkin Elmer, CYTOO).

[2] = dose 5X of concentration in cirrhosis media
[3] = dose 10x of concentration in cirrhosis media
[4] = dose 20X of concentration in cirrhosis media
[5] = dose 30X of concentration in cirrhosis media

CC(C)C[C@H](N)C(=O)O [L, L-leucine]
Albumin/Nuclei (mean) ([1]; Dose 5X of basal media concentrations): −0.087 | Albumin/Nuclei (mean) ([1]; Dose 10X of basal media concentrations): −0.116 | Albumin/Nuclei (mean) ([1]; Dose 20X of basal media concentrations): −0.219 | Albumin/Nuclei (mean) ([1]; Dose 40X of basal media concentrations): 0.148 | Effect on Albumin ([1]; over the dose curve 5X-40X): No Effect | Effect on Atrophy (primary human myotubes; TNF induced myotube atrophy, overall call across doses): no effect | Fusion Index mean (primary human myotubes; [2]): 0.087 | Myotube Area mean (primary human myotubes; [2]): 4499.140 | Fusion Index mean (primary human myotubes; [3]): 0.094 | Myotube Area mean (primary human myotubes; [3]): 4480.850 | Fusion Index mean (primary human myotubes; [4]): 0.091 | Myotube Area mean (primary human myotubes; [4]): 4679.729 | Fusion Index mean (primary human myotubes; [5]): 0.092 | Myotube Area mean (primary human myotubes; [5]): 4579.231
